Literature values as cited in patent US8912356B2, “DCC mediated coupling for halofenate manufacture” (Metabolex, Inc., priority 2013, dated 2014).

Experiments:
[1] = administration of racemic mixture
cytochrome P450 2C9 = cytochrome P450 2C9 (Homo sapiens, UniProt P11712); conditions: relative to (+)-enantiomer of halofenic acid
Chain of cytochrome P450 2C9 (P11712 whole entry): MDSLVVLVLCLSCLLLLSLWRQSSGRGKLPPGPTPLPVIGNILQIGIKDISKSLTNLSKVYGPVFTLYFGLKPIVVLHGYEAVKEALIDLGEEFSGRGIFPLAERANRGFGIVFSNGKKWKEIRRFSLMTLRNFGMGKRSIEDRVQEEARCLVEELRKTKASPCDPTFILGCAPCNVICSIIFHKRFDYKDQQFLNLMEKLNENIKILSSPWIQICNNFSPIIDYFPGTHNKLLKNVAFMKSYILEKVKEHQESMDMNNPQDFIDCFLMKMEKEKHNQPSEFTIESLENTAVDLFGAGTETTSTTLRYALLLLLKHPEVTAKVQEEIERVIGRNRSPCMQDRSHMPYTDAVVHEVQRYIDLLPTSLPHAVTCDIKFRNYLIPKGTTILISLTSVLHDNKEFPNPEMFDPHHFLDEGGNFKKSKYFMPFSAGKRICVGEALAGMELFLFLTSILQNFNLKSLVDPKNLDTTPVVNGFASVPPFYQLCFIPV

ability to inhibit cytochrome P450 2C9 compared to the (+)-enantiomer (cytochrome P450 2C9)	SMILES	plasma glucose [1]	serum uric acid [1]	triglycerides [1]	potential adverse drug-drug interactions (racemic halofenate, with Coumadin)	adverse effects (racemic mixture)
–	CC(=O)NCCOC(=O)C(Oc1cccc(C(F)(F)F)c1)c1ccc(Cl)cc1 (racemic) [halofenate, 2-acetamidoethyl (4-chlorophenyl) (3-trifluoromethylphenoxy)acetate]	lowering	lowering	lowering	difficulties controlling anticoagulation with Coumadin™	nausea, gastrointestinal ulcers, and gastrointestinal bleeding
about twenty-fold less active	O=C(O)[C@H](Oc1cccc(C(F)(F)F)c1)c1ccc(Cl)cc1 [(−)-enantiomer of halofenic acid, (−)-4-chloro-α-(3-trifluoromethylphenoxy)phenylacetic acid]	–	–	–	–	–
